# Data: paper PMC5399312 (Journal of Experimental & Clinical Cancer Research : CR, 2017)
# Columns and labels:
# [1] = tested on: SW480 cells transfected with HK2 siRNA; assay: HK2 siRNA knock-down, CCK-8 cytotoxicity; format: cell-based, human; details: compared with negative control siRNA cells
# Description: SW480 cells were transfected with either two siRNAs against HK2 or one nontargeting siRNA and cultured in 6-well plates according to the manufacturer’s instructions. The target sequences of oligo siRNAs were as follows: siRNA: 5'- […] -3', nontargeting siRNA (Negative control, NC): 5'- […] -3' [21].
# SW480 cells = assay: Determination of lactate generation; format: cell-based, human; details: 48 h; versus untreated or Met treated control
# Procedure: After 48 h drug treatment, media was collected and assayed following the manufacturer’s instructions of Lactic Acid Production Detection kit (KeyGen, Nanjing, China) to measure the generation of lactic acid. The assay was determined using a plate reader (Synergy HT, BioTek, USA) at 530 nm. Met was used as a positive control.
# G6P-DH = target: T1, G6P-DH (Leuconostoc mesenteroides, UniProt P11411); assay: Interference with coupling enzyme; format: biochemical
# T1 construct: purchased Roche (Switzerland)
# T1 sequence (P11411 1-486): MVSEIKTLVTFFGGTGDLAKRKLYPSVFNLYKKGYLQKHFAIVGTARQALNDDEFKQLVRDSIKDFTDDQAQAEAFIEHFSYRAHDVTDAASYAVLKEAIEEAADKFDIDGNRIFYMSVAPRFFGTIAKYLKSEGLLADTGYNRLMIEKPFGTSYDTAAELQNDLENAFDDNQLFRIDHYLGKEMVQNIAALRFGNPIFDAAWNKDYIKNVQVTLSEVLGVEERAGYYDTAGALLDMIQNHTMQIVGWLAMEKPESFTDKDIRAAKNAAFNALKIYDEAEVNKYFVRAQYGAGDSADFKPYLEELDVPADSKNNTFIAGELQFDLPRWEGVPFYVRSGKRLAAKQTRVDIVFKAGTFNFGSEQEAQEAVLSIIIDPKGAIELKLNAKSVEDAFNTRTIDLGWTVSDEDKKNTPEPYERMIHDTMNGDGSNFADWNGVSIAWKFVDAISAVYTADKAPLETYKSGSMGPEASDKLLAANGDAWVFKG
# Procedure: Then 85 μL assay mix containing 100 mM Tris HCl pH 8.0, 5 mM MgCl2, 200 mM Glucose, 0.8 mM ATP, 1 mM NAD^+, 0.25 Units of G6P-DH, was added.
# [2] = Detection of free Benz in tumor tissue (HPLC); format: in vivo, mouse; details: 600 mg/Kg Benz-treated group
# Procedure: After recording the weights of tumor mass, tumor tissues from 600 mg/Kg Benz-treated group and 200 mg/Kg liposomal Benz-treated group were lightly washed and blotted to remove any excess blood. Then tumor tissues were homogenized and extracted with methanol, and 100 μL of the extracts were then subjected to HPLC assay. HPLC analysis was conducted by using a reverse phase column (Restek C18 5 μm, 250 mm × 4.6 mm) with a mobile phase of methanol-water- trifluoroacetic acid (20: 1000: 1).
# p-AMPKα in SW480 cells = assay: Western blot analysis; format: cell-based, human; details: 75, 150 and 300 μM
# Procedure: The harvested cells were lysed with radioimmunoprecipitation assay (RIPA) buffer (Beyotime, China). Insoluble debris was removed by centrifugation and the concentration of total proteins was determined using BCA Protein Assay Kit (Beyotime, China). Then lysate protein (20-40 μg) was subjected to 10% SDS-PAGE and electrophoretically transferred to polyvinylidene difluoride membranes (PVDF) (Millipore, USA). […] Protein bands were visualized using an enhanced chemiluminescence reagent (ECL Plus) (GE Healthcare, USA) after hybridization with a HRP conjugated secondary antibody. All experiments were performed in triplicate and analyzed by optical density.
structure (smiles),measurement,setting,value
"NC(CO)C(=O)NNCc1ccc(O)c(O)c1O (centres unmarked) [Benz, Benserazide]",cytotoxicity to HK2 siRNA transfected cells,[1],fewer effects
same,concentration of lactate in cell culture supernatant,SW480 cells,remarkably decreased
same,interference with G6P-DH activity,G6P-DH,No Benz interference
same,average concentration of free Benz in tumor tissue,[2],5.59 µg/mg
same,phosphorylation of AMPKα,p-AMPKα in SW480 cells,increased
